Experimental data as given in US7320863B2 (Albert Einstein College of Medicine of Yeshiva University, priority 1996, dated 2008).

What was measured:
[1] = biological target: T1, rat sodium/iodide symporter (Rattus norvegicus, UniProt Q63008)
T1 sequence (Q63008 1-618): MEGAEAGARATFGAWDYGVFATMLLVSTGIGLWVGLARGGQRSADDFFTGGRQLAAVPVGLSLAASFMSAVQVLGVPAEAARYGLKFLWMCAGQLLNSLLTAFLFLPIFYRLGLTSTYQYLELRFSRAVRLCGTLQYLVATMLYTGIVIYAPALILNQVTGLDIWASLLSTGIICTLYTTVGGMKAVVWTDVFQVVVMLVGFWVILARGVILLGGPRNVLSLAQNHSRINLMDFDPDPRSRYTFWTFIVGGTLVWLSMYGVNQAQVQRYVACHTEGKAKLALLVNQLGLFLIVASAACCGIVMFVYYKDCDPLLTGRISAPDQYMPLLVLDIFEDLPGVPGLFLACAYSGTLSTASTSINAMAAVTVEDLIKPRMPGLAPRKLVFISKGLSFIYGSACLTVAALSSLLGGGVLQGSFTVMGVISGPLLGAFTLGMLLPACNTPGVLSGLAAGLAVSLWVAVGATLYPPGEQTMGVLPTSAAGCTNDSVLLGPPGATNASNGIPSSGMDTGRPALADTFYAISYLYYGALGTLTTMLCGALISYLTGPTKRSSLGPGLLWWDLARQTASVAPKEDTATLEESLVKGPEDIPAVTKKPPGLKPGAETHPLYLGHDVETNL
Description: Transcripts were injected into oocytes and oocytes were assayed for perchlorate-sensitive Na^+/I^− symport activity as described in Weiss, et al., supra.
Control assays were carried out in oocytes microinjected with water (lane-1). Na^+-dependence was ascertained by using choline in place of Na^+, and perchlorate sensitivity was tested by conducting assays in the presence of both Na+ and perchlorate.

[2] = biological target: T1, rat sodium/iodide symporter; assay: Iodide accumulation in COS cells transfected with sodium/iodide symporter cDNA; format: cell-based; parameters: Beginning with Met at position 1, a long open reading frame codes for a protein of 618 amino acids; expressed in transfected cells; host or cells: Xenopus laevis oocytes microinjected with cRNA transcribed in vitro (T7 RNA polymerase) from the cDNA clone in pSPORT; conditions: COS cells transfected with symporter cDNA clone, assayed 48 h after transfection
Description: In FIG. 1A oocytes were microinjected with water (lane 1), 50 ng mRNA from FRTL-5 cells (lane 2), or approximately 20 ng cRNA transcripts made in vitro from pools containing the indicated number of cDNA clones (lanes 3-7, numbers without parentheses at bottom of FIG. 1A). […] Inset: Double reciprocal plot. […] Each point represents the average of triplicate determinations+/−SE.
A directional cDNA library was prepared in the PSPORT (BRL) vector from poly A^+ RNA isolated from FRTL-5 cells. cRNAs were synthesized in vitro using T7 RNA polymerase in the presence of m^7 GpppG from pools of cDNA clones. Transcripts were injected into oocytes and oocytes were assayed for perchlorate-sensitive Na^+/I^− symport activity as described in Weiss, et al., supra.

Structure (SMILES) | generated iodide concentration gradient ([1]; 50 μM iodide in transport solution, functional volume 0.5 μl/oocyte) [fold] | Na+/I- symport activity in the presence of perchlorate ([1]; assayed in the presence of both Na+ and perchlorate, 45 min) | perchlorate sensitivity of Na+/I- symport activity [2]
I [iodide] | > 30 |  | 
[O-][Cl+3]([O-])([O-])O [perchlorate] |  | virtually indistinguishable from background | perchlorate-sensitive
